Source: the NIST ThermoML archive (doi:10.1016/j.fluid.2004.10.023)
Numbers after ± are expanded uncertainties.

Settings: Liquid, Closed cell (Static) method

SMILES	vapor or sublimation pressure (318.4 K) [kPa]	other results
C=CCC [1-butene]	–	vapor or sublimation pressure (318.42 K): 525.55 ± 2.3 kPa
C=C(C)C [2-methylpropene]	538.15 ± 2.3	–
CCOC(C)=O [ethyl acetate]	31.37 ± 0.42	–
CC(C)C [2-methylpropane]	–	vapor or sublimation pressure (318.39 K): 607.54 ± 2.6 kPa
C/C=C\C [(Z)-2-butene]	391.45 ± 1.8	–
CCCC [butane]	436.55 ± 1.9	–
